From patent US11267800B2, “Cyclohexyl acid triazole azines as LPA antagonists” (BRISTOL-MYERS SQUIBB COMPANY, priority 2017, dated 2022)

The compounds below were run against T1, human LPA1 (Homo sapiens, UniProt Q92633) (assay: LPA1 functional antagonist assay (calcium flux)). Details: CHO cells overexpressing human LPA1; inhibition of calcium flux induced by 10 nM LPA; read-out: hLPA1 IC50.
T1 construct: expressed in transfected cells; host or cells: Chinese hamster ovary (CHO) cells
Format: cell-based
Procedure: The effectiveness of compounds of the present invention as LPA1 inhibitors can be determined in an LPA1 functional antagonist assay as follows:
Chinese hamster ovary cells overexpressing human LPA1 were plated overnight (15,000 cells/well) in poly-D-lysine coated 384-well microplates (Greiner bio-one, Cat #781946) in DMEM/F12 medium (Gibco, Cat #11039). Following overnight culture, cells were loaded with calcium indicator dye (AAT Bioquest Inc, Cat #34601) for 30 minutes at 37° C. The cells were then equilibrated to room temperature for 30 minutes before the assay. Test compounds solubilized in DMSO were transferred to 384 well non-binding surface plates (Corning, Cat #3575) using the Labcyte Echo acoustic dispense and diluted with assay buffer [1×HBSS with calcium/magnesium (Gibco Cat #14025-092), 20 mM HEPES (Gibco Cat #15630-080) and 0.1% fatty acid free BSA (Sigma Cat #A9205)] to a final concentration of 0.5% DMSO. Diluted compounds were added to the cells by FDSS6000 (Hamamatsu) at final concentrations ranging from 0.08 nM to 5 μM. and were then incubated for 20 min at room temperature at which time LPA (Avanti Polar Lipids Cat #857130C) was added at final concentrations of 10 nM to stimulate the cells. The compound IC50 value was defined as the concentration of test compound which inhibited 50% of the calcium flux induced by LPA alone. IC50 values were determined by fitting data to a 4-parameter logistic equation (GraphPad Prism, San Diego Calif.).

T1 sequence (Q92633 whole entry): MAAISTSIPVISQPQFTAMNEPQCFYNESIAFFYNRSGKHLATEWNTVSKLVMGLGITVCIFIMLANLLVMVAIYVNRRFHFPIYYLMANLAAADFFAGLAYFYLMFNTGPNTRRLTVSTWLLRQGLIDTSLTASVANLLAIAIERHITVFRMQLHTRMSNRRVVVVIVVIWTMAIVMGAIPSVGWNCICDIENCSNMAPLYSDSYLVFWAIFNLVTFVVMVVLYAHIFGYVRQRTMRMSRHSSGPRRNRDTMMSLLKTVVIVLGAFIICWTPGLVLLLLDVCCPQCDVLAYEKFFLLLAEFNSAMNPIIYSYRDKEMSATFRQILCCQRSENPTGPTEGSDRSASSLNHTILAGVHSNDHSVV

IC50 | Structure (SMILES)
0.22 µM | Cc1nc(-c2nnn(C)c2CNc2ncnc(NCCC3CC3)n2)ccc1O[C@H]1CCC[C@H](C(=O)O)C1 [Example 48]
0.069 µM | CCCCNc1nc(NCc2c(-c3ccc(O[C@H]4CCC[C@H](C(=O)O)C4)c(C)n3)nnn2C)ncc1F [Example 49]
0.243 µM | Cc1nc(-c2nnn(C)c2CNc2nccc(NCCC3CC3)n2)ccc1O[C@H]1CCC[C@H](C(=O)O)C1 [Example 50]
0.233 µM | CCCNc1ccnc(NCc2c(-c3ccc(O[C@H]4CCC[C@H](C(=O)O)C4)c(C)n3)nnn2C)n1 [Example 51]
0.063 µM | Cc1nc(-c2nnn(C)c2CNc2ncc(F)c(NCCC(C)C)n2)ccc1O[C@H]1CCC[C@H](C(=O)O)C1 [Example 52]
0.058 µM | Cc1nc(-c2nnn(C)c2CNc2ncc(F)c(NC3CCC3)n2)ccc1O[C@H]1CCC[C@H](C(=O)O)C1 [Example 53]
0.134 µM | Cc1nc(-c2nnn(C)c2CNc2ncc(F)c(Nc3ccccc3)n2)ccc1O[C@H]1CCC[C@H](C(=O)O)C1 [Example 54]
0.189 µM | Cc1nc(-c2nnn(C)c2CNc2ccnc(OCC(C)(C)F)n2)ccc1O[C@H]1CCC[C@H](C(=O)O)C1 [Example 55]
0.052 µM | Cc1nc(-c2nnn(C)c2CNc2nccc(OCC(C)(C)F)n2)ccc1O[C@H]1CCC[C@H](C(=O)O)C1 [Example 56]
0.021 µM | Cc1nc(-c2nnn(C)c2CNc2ncc(F)c(NCCC3CC3)n2)ccc1O[C@H]1CCC[C@H](C(=O)O)C1 [Example 57]
0.082 µM | CCNc1nc(NCc2c(-c3ccc(O[C@H]4CCC[C@H](C(=O)O)C4)c(C)n3)nnn2C)ncc1F [Example 58]
0.059 µM | Cc1nc(-c2nnn(C)c2CNc2ncc(F)c(NC(C)C)n2)ccc1O[C@H]1CCC[C@H](C(=O)O)C1 [Example 59]
0.034 µM | Cc1nc(-c2nnn(C)c2CNc2ncc(F)c(NCC(C)C)n2)ccc1O[C@H]1CCC[C@H](C(=O)O)C1 [Example 60]
0.233 µM | Cc1nc(-c2nnn(C)c2CNc2ccnc(OCC(C)(C)C)n2)ccc1O[C@H]1CCC[C@H](C(=O)O)C1 [Example 61]
0.063 µM | Cc1nc(-c2nnn(C)c2CNc2nccc(NCCc3ccc(F)cc3)n2)ccc1O[C@H]1CCC[C@H](C(=O)O)C1 [Example 62]
0.086 µM | Cc1nc(-c2nnn(C)c2CNc2nccc(NCCc3ccccc3)n2)ccc1O[C@H]1CCC[C@H](C(=O)O)C1 [Example 63]
0.046 µM | CCCNc1nc(NCc2c(-c3ccc(O[C@H]4CCC[C@H](C(=O)O)C4)c(C)n3)nnn2C)ncc1F [Example 64]
0.036 µM | Cc1nc(-c2nnn(C)c2CNc2nccc(OCC(C)(C)C)n2)ccc1O[C@H]1CCC[C@H](C(=O)O)C1 [Example 65]
0.012 µM | Cc1nc(-c2nnn(C)c2CNc2nccc(C3CCCC3)n2)ccc1O[C@H]1CCC[C@H](C(=O)O)C1 [Example 66]
0.041 µM | [2H]C([2H])([2H])C([2H])(Oc1ccnc(NCc2c(-c3ccc(O[C@H]4CCC[C@H](C(=O)O)C4)c(C)n3)nnn2C)n1)C([2H])([2H])[2H] [Example 67]
0.132 µM | CCOc1ccnc(NCc2c(-c3ccc(O[C@H]4CCC[C@H](C(=O)O)C4)c(C)n3)nnn2C)c1 [Example 68]

IC50 | Structure (SMILES)
0.054 µM | Cc1nc(-c2nnn(C)c2CNc2nccc(OCC(C)F)n2)ccc1O[C@H]1CCC[C@H](C(=O)O)C1 (stereo partly shown) [Example 69]
0.319 µM | Cc1nc(-c2nnn(C)c2CNc2ncnc(N3CCCC3)n2)ccc1O[C@H]1CCC[C@H](C(=O)O)C1 [Example 70]
0.013 µM | [2H]C([2H])([2H])C([2H])([2H])Oc1ccnc(NCc2c(-c3ccc(O[C@H]4CCC[C@H](C(=O)O)C4)c(C)n3)nnn2C)n1 [Example 71]
0.057 µM | Cc1nc(-c2nnn(C)c2CNc2cc(OC(F)(F)F)ccn2)ccc1O[C@H]1CCC[C@H](C(=O)O)C1 [Example 72]
0.133 µM | Cc1nc(-c2nnn(C)c2CNc2ccnc(OCC(F)F)n2)ccc1O[C@H]1CCC[C@H](C(=O)O)C1 [Example 73]
0.13 µM | Cc1nc(-c2nnn(C)c2CNc2nccc(OCC3(C)COC3)n2)ccc1O[C@H]1CCC[C@H](C(=O)O)C1 [Example 74]
0.413 µM | Cc1nc(-c2nnn(C)c2CNc2cc(OC(F)(F)F)ccn2)ccc1O[C@@H]1CCC[C@@H](C(=O)O)C1 [Example 75]
0.044 µM | Cc1nc(-c2nnn(C)c2CNc2ncc(F)c(NCCc3ccc(Cl)cc3)n2)ccc1O[C@H]1CCC[C@H](C(=O)O)C1 [Example 76]
0.065 µM | Cc1nc(-c2nnn(C)c2CNc2ccnc(OCC(C)(F)F)n2)ccc1O[C@H]1CCC[C@H](C(=O)O)C1 [Example 77]
0.034 µM | Cc1nc(-c2nnn(C)c2CNc2nccc(OCC(C)(F)F)n2)ccc1O[C@H]1CCC[C@H](C(=O)O)C1 [Example 78]
0.08 µM | Cc1nc(-c2nnn(C)c2CNc2nccc(OCC(F)F)n2)ccc1O[C@H]1CCC[C@H](C(=O)O)C1 [Example 79]
0.135 µM | Cc1nc(-c2nnn(C)c2CNc2ncnc(Oc3ccccc3)n2)ccc1O[C@H]1CCC[C@H](C(=O)O)C1 [Example 80]
0.092 µM | Cc1nc(-c2nnn(C)c2CNc2nccc(-c3cnccn3)n2)ccc1O[C@H]1CCC[C@H](C(=O)O)C1 [Example 81]
0.122 µM | COCCOc1ccnc(NCc2c(-c3ccc(O[C@H]4CCC[C@H](C(=O)O)C4)c(C)n3)nnn2C)n1 [Example 82]
0.172 µM | Cc1nc(-c2nnn(C)c2CNc2nccc(OC3CCOC3)n2)ccc1O[C@H]1CCC[C@H](C(=O)O)C1 (stereo partly shown) [Example 83]
0.383 µM | Cc1nc(-c2nnn(C)c2CNc2nccc(Oc3ccc(Cl)nc3)n2)ccc1O[C@H]1CCC[C@H](C(=O)O)C1 [Example 84]
0.109 µM | Cc1nc(-c2nnn(C)c2CNc2nccc(OC3CCCC3)n2)ccc1O[C@H]1CCC[C@H](C(=O)O)C1 [Example 85]
0.091 µM | Cc1nc(-c2nnn(C)c2CNc2nccc(Oc3cccnc3)n2)ccc1O[C@H]1CCC[C@H](C(=O)O)C1 [Example 86]
0.077 µM | COCCCCOc1ccnc(NCc2c(-c3ccc(O[C@H]4CCC[C@H](C(=O)O)C4)c(C)n3)nnn2C)n1 [Example 87]
0.016 µM | CCSc1ccnc(NCc2c(-c3ccc(O[C@H]4CCC[C@H](C(=O)O)C4)c(C)n3)nnn2C)n1 [Example 88]
0.077 µM | COCCCOc1ccnc(NCc2c(-c3ccc(O[C@H]4CCC[C@H](C(=O)O)C4)c(C)n3)nnn2C)n1 [Example 89]

IC50 | Structure (SMILES)
0.054 µM | Cc1nc(-c2nnn(C)c2CNc2nccc(OCC(F)(F)F)n2)ccc1O[C@H]1CCC[C@H](C(=O)O)C1 [Example 90]
0.032 µM | Cc1nc(-c2nnn(C)c2CNc2nccc(OCC(F)(F)C(F)F)n2)ccc1O[C@H]1CCC[C@H](C(=O)O)C1 [Example 91]
0.381 µM | Cc1nc(-c2nnn(C)c2CNc2ccnc(OCC(C)C)n2)ccc1O[C@H]1CCC[C@H](C(=O)O)C1 [Example 92]
0.023 µM | Cc1nc(-c2nnn(C)c2CNc2nccc(OCC(C)C)n2)ccc1O[C@H]1CCC[C@H](C(=O)O)C1 [Example 93]
0.241 µM | Cc1nc(-c2nnn(C)c2CNc2nccc(Oc3cccc(C#N)c3)n2)ccc1O[C@H]1CCC[C@H](C(=O)O)C1 [Example 94]
1.28 µM | Cc1nc(-c2nnn(C)c2CNc2nc(-c3cccs3)nc(-c3cccs3)n2)ccc1O[C@H]1CCC[C@H](C(=O)O)C1 [Example 95]
0.016 µM | Cc1nc(-c2nnn(C)c2CNc2nccc(OC3CCC3)n2)ccc1O[C@H]1CCC[C@H](C(=O)O)C1 [Example 96]
0.187 µM | CSc1ccnc(NCc2c(-c3ccc(O[C@H]4CCC[C@H](C(=O)O)C4)c(C)n3)nnn2C)n1 [Example 97]
0.099 µM | Cc1nc(-c2nnn(C)c2CNc2ccnc(OC(C)C(F)(F)F)n2)ccc1O[C@H]1CCC[C@H](C(=O)O)C1 (stereo partly shown) [Example 98]
0.244 µM | Cc1nc(-c2nnn(C)c2CNc2nccc(OC(C)C(F)(F)F)n2)ccc1O[C@H]1CCC[C@H](C(=O)O)C1 (stereo partly shown) [Example 99]
0.085 µM | Cc1nc(-c2nnn(C)c2CNc2nccc(Oc3c(F)cc(F)cc3F)n2)ccc1O[C@H]1CCC[C@H](C(=O)O)C1 [Example 100]
0.028 µM | Cc1nc(-c2nnn(C)c2CNc2nccc(Oc3ccc(F)c(F)c3)n2)ccc1O[C@H]1CCC[C@H](C(=O)O)C1 [Example 101]
0.025 µM | Cc1nc(-c2nnn(C)c2CNc2nccc(OCCCF)n2)ccc1O[C@H]1CCC[C@H](C(=O)O)C1 [Example 102]
0.033 µM | Cc1nc(-c2nnn(C)c2CNc2nccc(Oc3cc(F)ccc3F)n2)ccc1O[C@H]1CCC[C@H](C(=O)O)C1 [Example 103]
0.027 µM | CCCOc1ccnc(NCc2c(-c3ccc(O[C@H]4CCC[C@H](C(=O)O)C4)c(C)n3)nnn2C)n1 [Example 104]
0.022 µM | COc1cccc(Oc2ccnc(NCc3c(-c4ccc(O[C@H]5CCC[C@H](C(=O)O)C5)c(C)n4)nnn3C)n2)c1 [Example 105]
0.226 µM | Cc1ccc(Oc2ccnc(NCc3c(-c4ccc(O[C@H]5CCC[C@H](C(=O)O)C5)c(C)n4)nnn3C)n2)cc1 [Example 106]
0.054 µM | COc1ccc(Oc2ccnc(NCc3c(-c4ccc(O[C@H]5CCC[C@H](C(=O)O)C5)c(C)n4)nnn3C)n2)cc1 [Example 107]
0.152 µM | Cc1cccc(Oc2ccnc(NCc3c(-c4ccc(O[C@H]5CCC[C@H](C(=O)O)C5)c(C)n4)nnn3C)n2)c1 [Example 108]
